The results in this text go back to paper PMC11904948, “Peptide‐Drug Conjugate for Therapeutic Reprogramming of Tumor‐Associated Macrophages in Breast Cancer” (Advanced Science, 2025).

The test system of data set [1] is mouse bone marrow‐derived macrophages (BMDM). Briefly: Phagocytosis of live 4T1-GFP cancer cells by BMDM. Format: cell-based. The settings on record: Balb/c BMDM, 10 µM 4 h, washed, 48 h, then 2 h with 4T1-GFP cells, n = 3. As for the experimental part:
We then analyzed if MACTIDE‐V affected the phagocytic activity of BMDM in vitro.
For the live 4T1‐GFP phagocytosis assay, 4T1‐GFP cells were cultured in RPMI1640 supplemented with 10% (v/v) FBS and 1% penicillin/streptomycin at 37 °C, 5% CO2. BMDM were seeded on Ibidi plates (Ibidi, cat# 80821) and at day 5 were treated with MACTIDE and conjugates as previously described (10 µM during 4h, followed by washing with media). Then, 48h later, the BMDM were incubated for 2 h with 2×10^5 4T1‐GFP cells (the area of the wells is 1 cm^2). Then, the supernatant was removed, and the wells were washed with media and then with PBS. Then, the cells were fixed with ice‐cold acetone for 10 min. Fixed cells were then washed with PBS, permeabilized with PBS‐0.2% Triton for 10 min and washed with PBS‐T (PBS+0.05% Tween‐20 (v/v)), and then incubated with blocking buffer (5% BSA (w/v), 5% FBS (v/v) in PBS‐T) for 1 h at room temperature. […] The mean GFP signal intensity was quantified from the images using ImageJ and normalized to the amount of DAPI^+ nuclei.
Figure S4. […] Scale bars= 50µm.The mean GFP signal intensity was quantified from the images using ImageJ and normalized to the amount of DAPI^+ nuclei (right panel). […]

The next data set has as its system orthotopic 4T1.2 tumors. Briefly: MACTIDE-V + anti-PD-1 combination therapy in orthotopic 4T1.2. Format: in vivo, Balb/c mice. As for the experimental part: 4T1.2 bearing mice were treated with 9 doses of CtrlPep‐V, MACTIDE‐V (1 mg Kg^−1 in Verteporfin per dose), or PBS i.p. every other day according to the scheme in (A). Anti‐PD‐1 injections started 16 days post‐tumor induction (three injections of 200 µg each). Mice were sacrificed on day 29, their tumor weights were analyzed (B), pulmonary metastases area quantified from H&E‐stained sections (C), and their tumors were analyzed with flow cytometry (D–H).
5×10^5 4T1.2 cells in 50 µL of PBS were injected subcutaneously into 4th mammary fat pad. On day 8, mice were sorted into groups based on tumor volume (≈40 mm^3): PBS, anti‐PD‐1, MACTIDE‐V, MACTIDE‐V+anti‐PD‐1. Mice were treated i.p. every other day with 500 µL of MACTIDE‐V (30 nmol, 1mg kg^−1 Verteporfin) or PBS (10 injections in total). On day 18 post‐injection, MACTIDE‐V+anti‐PD‐1 and anti‐PD‐1 groups received recombiMAb anti‐mouse PD‐1 (Bioxcell, Catalog #CP151), a mouse IgG2a monoclonal antibody with the D265A mutation in the Fc fragment which renders it unable to bind to endogenous Fcγ receptors. Mice received three intraperitoneal injections of 200 µg of anti‐PD‐1 dissolved in 500 µL of PBS. […] Five tumors per group were analyzed by FC as described above. TAM/monocytes were defined as Ly6G^−CD11b^+/F4/80^+ population from the CD45^+ population.
The lungs of all mice were fixed in formalin and embedded in paraffin, and later sectioned and stained with H&E by the histology facility of Vall D´Hebron Research Institute (Barcelona, Spain). Five 10 µm‐sections spaced apart 1 mm were taken from the lungs of each mouse (n = 7 mice per group). Then, the slides were scanned, and the metastatic area divided by the total lung area was calculated for each mouse.

Data set [2] relates to primary human macrophages. Briefly: Cytokine secretion by primary human macrophages (bead-based multiplex panel). Format: cell-based. The settings on record: 10 µM 4 h, washed, 48 h, supernatant, n = 3. The procedure:
To investigate potential off‐target risk in vivo caused by MACTIDE‐V we analyzed the serum levels of the hepatic enzyme alanine aminotransferase (ALAT) following a 3 mg Kg^−1 dose of MACTIDE‐V in healthy mice. If MACTIDE‐V causes off‐target inflammation, it would likely occur in the liver (the organ that expresses the MACTIDE receptor) and would reflect on ALAT levels (liver inflammation produces a > 2‐fold increase in ALAT^[ [35] ^]).
Figure S9. Quantification of cytokines from the supernatant of primary human macrophages treated with MACTIDE-V. Primary human macrophages (obtained from monocytes derived from human blood buffy coat) were incubated with 10µM MACTIDE-V for 4 h, followed by 2 washes with media, the cells were then placed in new media and cultured for an additional 48 h. Then, the supernatant was collected and analyzed for cytokine expression using a bead-based multiplexed cytokine panel assay (Biolegend, cat# 740502) following the manufacturer’s instructions. Anova Fisher LSD (n=3).

Where [3] appears, read: tumor flow cytometry, five tumors per group.

For “Vert‐Ahx‐AKPCGS‐OH [CtrlPep‐V, reference compound]”, the “phagocytosis of live 4T1 cancer cells labeled with GFP” value in data set [1] is “negligible phagocytosis”.
For the substance “Vert‐Ahx‐G(CTKSIPPIC)SPGAK‐OH (disulfide) [MACTIDE‐V]”, the primary tumor mass entry with orthotopic 4T1.2 tumors (MACTIDE-V 30 nmol i.p. every other day, anti-PD-1 three i.p. injections of 200 µg, sacrifice day 29) is reported as “significantly reduced the primary tumor mass”. Further, the pulmonary metastases entry in the data set on orthotopic 4T1.2 tumors (metastatic area from H&E sections, n = 7 mice per group, compared with anti-PD-1) is reported as “superior effect on reducing pulmonary metastases”. Moreover, in the data set with orthotopic 4T1.2 tumors (tumor flow cytometry), the B cell infiltration entry was “no differences in B cell infiltration”, the “expression of Granzyme B (GrzB) in CD25^+PD‐1^+ CD8^+ T cells” value was “increased” and the “expression of PD‐1 on CD8^+ T cells” value is “reduced”. In the data set on orthotopic 4T1.2 tumors (tumor flow cytometry, compared to the other experimental conditions), the “FOXP3^+PD‐1^+ population among CD4^+ T cells” value is given as “decreasing trend”. Besides, in the data set with orthotopic 4T1.2 tumors (setting [3]), the “CD206^+MHCII^+ population of TAM/monocytes” value is “highest increase” and the “CD206^+MHCII^− population of TAM/monocytes” value is on record as “highest decrease”. Besides, in the data set on orthotopic 4T1.2 tumors (tumor flow cytometry, n = 5), the “CD86^+MHCII^+ population of TAM/monocytes” value is “significantly increased” and the “CD86^−MHCII^− population of TAM/monocytes” value is given as “decreased”. Besides, the “CD4^+ T cells, CD8^+ T cells and NK cells in tumor” value in the data set with orthotopic 4T1.2 tumors (tumor flow cytometry, statistically significant only for NK cells) is “highest increase”. For the same substance, the “phagocytosis of live 4T1 cancer cells labeled with GFP” value in data set [1] was “cancer cell phagocytosis only in the MACTIDE‐V treated BMDM”. Further, in data set [2], the “secretion of IFN‐γ” value is reported as “did not significantly increase”, the “secretion of IL‐1RA” value is “significantly decreased”, the “secretion of IL‐12” value was “significantly increased” and the “secretion of IL‐23” value is given as “significantly increased”. In data set [2], the “secretion of TNF‐α” value is “did not significantly increase”.
